# Test results published in ChEMBL document CHEMBL1201862, “PubChem BioAssay data set” (2004).
# Active and inactive are the calls of the source.
# How the values were obtained:
# [1] = viability of uninfected HEp-2 cells – cell-based, HTS, cytotoxicity control for RSV inhibitor project, dose response (AID 2410); assay type: functional; conditions: human respiratory syncytial virus
# [2] = biological target: Cytochrome P450 2C9 (Homo sapiens, UniProt P11712)
# [3] = biological target: Cytochrome P450 2C19 (Homo sapiens, UniProt P33261); assay: Cytochrome panel assay with activity outcomes. Panel member name: p450-cyp2c19 Compounds with AC50 equal or less than 10 uM are considered active; assay type: functional; conditions: read-out: AC50
# Cytochrome P450 2C19, sequence (P33261 whole entry): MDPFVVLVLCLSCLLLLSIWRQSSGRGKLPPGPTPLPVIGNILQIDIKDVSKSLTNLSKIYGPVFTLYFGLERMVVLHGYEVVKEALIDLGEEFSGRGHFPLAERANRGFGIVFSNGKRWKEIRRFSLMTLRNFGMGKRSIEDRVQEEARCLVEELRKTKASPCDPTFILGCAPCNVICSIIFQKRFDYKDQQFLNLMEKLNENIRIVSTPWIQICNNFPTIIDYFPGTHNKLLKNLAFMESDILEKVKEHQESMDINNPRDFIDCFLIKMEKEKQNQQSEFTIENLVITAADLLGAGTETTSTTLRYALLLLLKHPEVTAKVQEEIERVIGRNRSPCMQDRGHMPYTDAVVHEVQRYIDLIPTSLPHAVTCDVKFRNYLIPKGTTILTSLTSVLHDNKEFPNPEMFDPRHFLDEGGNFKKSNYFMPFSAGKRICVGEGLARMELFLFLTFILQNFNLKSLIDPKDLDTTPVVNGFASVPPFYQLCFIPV
# [4] = biological target: T1, Cytochrome P450 1A2 (Homo sapiens, UniProt P05177);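 note: PubChem cytochrome P450 panel assay, CYP1A2 panel member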
# T1 sequence (P05177 whole entry): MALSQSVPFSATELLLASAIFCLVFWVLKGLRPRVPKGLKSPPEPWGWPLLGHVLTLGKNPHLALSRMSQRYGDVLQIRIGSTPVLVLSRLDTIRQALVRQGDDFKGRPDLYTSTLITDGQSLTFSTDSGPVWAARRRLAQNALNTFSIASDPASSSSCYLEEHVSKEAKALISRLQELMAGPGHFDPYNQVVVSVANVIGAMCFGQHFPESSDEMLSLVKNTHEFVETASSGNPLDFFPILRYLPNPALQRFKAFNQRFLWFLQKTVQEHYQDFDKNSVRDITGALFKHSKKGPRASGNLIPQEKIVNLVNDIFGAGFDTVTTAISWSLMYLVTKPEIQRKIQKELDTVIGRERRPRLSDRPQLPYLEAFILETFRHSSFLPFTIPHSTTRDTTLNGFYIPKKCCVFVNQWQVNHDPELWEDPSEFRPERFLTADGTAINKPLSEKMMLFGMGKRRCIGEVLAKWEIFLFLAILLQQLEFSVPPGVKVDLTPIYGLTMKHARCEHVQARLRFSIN
# [5] = tested on: Streptococcus sp. 'group A'; assay: Streptococcus pyogenes SK(-)GAS viability under kanamycin – luminescence, BacTiterGlo, confirmation, counter-screen for streptokinase expression inhibitor project, dose response (AID 1900); assay type: functional, organism-based
# [6] = biological target: T2, Streptokinase A (Streptococcus pyogenes serotype M1, UniProt P10520); assay: viability-normalized secreted streptokinase activity reduction – plasminogen activation absorbance, OD405, dose response (AID 1914); assay type: functional, Streptococcus pyogenes M1 GAS;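 note: secreted streptokinase activity via plasminogen activation per viability signal from cell pellet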
# T2 sequence (P10520 whole entry): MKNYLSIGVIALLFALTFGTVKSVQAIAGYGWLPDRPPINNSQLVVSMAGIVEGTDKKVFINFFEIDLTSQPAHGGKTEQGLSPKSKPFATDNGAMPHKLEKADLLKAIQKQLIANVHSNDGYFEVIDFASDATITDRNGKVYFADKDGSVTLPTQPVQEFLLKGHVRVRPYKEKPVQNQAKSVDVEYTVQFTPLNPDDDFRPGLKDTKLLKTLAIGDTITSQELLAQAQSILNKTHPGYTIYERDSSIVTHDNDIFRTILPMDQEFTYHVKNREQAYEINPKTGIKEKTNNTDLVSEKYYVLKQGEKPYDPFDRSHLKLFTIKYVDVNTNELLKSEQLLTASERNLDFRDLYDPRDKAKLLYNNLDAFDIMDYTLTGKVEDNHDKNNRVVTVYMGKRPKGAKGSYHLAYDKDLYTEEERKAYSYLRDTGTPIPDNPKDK
# [7] = tested on: Streptococcus; assay: GAS UMAA2166 growth inhibition – luminescence, BacTiterGlo, counter-screen for streptokinase expression inhibitor project, dose response (AID 1915); assay type: functional, organism-based;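 note: potency for reduction of bacterial viability or growth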
# [8] = biological target: T3, Corticotropin-releasing factor receptor 2/Corticotropin-releasing factor-binding protein (Homo sapiens, UniProt P24387+Q13324); assay: activators of CRF receptor 2 with binding protein – uHTS hits, confirmation (AID 602473); assay type: functional; conditions: read-out: EC50_Mean
# T3 sequence (Q13324 whole entry): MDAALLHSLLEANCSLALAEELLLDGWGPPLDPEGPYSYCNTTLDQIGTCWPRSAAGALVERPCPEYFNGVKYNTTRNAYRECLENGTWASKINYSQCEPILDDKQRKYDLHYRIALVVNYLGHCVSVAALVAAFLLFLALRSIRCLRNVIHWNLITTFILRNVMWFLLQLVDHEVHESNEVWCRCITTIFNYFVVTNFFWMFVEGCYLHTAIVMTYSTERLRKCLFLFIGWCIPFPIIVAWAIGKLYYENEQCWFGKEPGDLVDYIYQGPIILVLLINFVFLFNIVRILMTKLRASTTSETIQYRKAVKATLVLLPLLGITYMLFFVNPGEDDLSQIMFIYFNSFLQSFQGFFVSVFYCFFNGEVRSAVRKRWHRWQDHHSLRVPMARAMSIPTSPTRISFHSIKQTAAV
# T3 sequence (P24387 whole entry): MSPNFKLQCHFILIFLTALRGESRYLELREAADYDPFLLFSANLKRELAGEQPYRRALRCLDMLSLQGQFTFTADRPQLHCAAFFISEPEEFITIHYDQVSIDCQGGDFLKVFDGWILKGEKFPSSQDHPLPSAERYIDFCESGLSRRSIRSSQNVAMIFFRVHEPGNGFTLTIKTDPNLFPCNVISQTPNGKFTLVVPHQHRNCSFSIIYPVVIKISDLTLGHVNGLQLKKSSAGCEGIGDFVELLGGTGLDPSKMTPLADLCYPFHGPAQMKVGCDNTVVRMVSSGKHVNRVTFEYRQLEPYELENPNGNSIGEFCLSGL
# [9] = biological target: Cytochrome P450 3A4 (Homo sapiens, UniProt P08684);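 note: CYP3A4 tested as one member of a cytochrome P450 panel screen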
# Cytochrome P450 3A4, sequence (P08684 whole entry): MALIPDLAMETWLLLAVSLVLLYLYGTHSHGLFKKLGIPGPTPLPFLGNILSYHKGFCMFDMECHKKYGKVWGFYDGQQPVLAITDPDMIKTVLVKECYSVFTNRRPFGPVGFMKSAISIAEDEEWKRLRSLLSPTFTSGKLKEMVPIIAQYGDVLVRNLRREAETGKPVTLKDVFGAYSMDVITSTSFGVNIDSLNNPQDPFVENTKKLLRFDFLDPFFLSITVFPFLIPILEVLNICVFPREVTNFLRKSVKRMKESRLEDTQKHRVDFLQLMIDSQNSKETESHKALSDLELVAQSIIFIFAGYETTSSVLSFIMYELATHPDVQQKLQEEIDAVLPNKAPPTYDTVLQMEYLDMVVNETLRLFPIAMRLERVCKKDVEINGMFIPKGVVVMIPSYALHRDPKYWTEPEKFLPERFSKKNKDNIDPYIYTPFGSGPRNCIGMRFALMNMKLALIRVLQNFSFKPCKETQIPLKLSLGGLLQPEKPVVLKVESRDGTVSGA
# Cytochrome P450 2C9, sequence (P11712 whole entry): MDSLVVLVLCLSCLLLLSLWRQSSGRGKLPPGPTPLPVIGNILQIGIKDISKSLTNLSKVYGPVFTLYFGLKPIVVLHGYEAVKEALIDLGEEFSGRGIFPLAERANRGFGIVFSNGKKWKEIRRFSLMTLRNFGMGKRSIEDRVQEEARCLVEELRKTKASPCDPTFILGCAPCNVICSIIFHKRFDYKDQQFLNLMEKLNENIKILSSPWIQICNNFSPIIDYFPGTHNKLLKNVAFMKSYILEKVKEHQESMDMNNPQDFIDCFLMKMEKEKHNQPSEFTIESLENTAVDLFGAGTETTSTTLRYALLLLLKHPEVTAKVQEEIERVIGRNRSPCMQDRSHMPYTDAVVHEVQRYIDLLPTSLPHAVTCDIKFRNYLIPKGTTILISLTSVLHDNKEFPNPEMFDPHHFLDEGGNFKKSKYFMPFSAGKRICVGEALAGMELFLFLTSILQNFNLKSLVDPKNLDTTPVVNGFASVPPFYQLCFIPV
smiles,measurement,setting,value
CC1CN(S(=O)(=O)c2cccc(C(=O)Nc3cc(Cl)ccc3N3CCOCC3)c2)CC(C)O1 (stereo unspecified),CC50,[1],43 µM (active)
CN(C)c1ccc(-c2cncnc2NCCc2cnc[nH]2)cc1,AC50,[2],0.501 µM (inconclusive)
Cc1ccc(NC2c3ncccc3C(=O)N2Cc2ccc(F)cc2)cc1 (stereo unspecified),CC50,[1],> 50 µM (active)
CCC/C=C(\CCC)C(NS(=O)(=O)c1cccc2cccnc12)c1ccc(-c2ccccc2)cc1 (stereo unspecified),AC50,[3],2.51 µM (inconclusive)
same,AC50,[4],0.794 µM (inconclusive)
OC(COc1ccc(Cl)c2ccccc12)CN1CCN(c2ccccn2)CC1 (stereo unspecified),CC50,[1],18.3 µM (active)
O=C(NNc1nc(-c2ccc(F)cc2)cs1)c1ccccc1,EC50,[5],0.831 µM (active)
same,EC50,[6],> 150 µM (not active)
same,EC50,[7],> 150 µM (not active)
CCNc1nc(NCC)nc(-n2nc(C)cc2C)n1,EC50,[5],17.2 µM (active)
same,EC50,[6],> 150 µM (not active)
same,EC50,[7],> 150 µM (not active)
Cn1cccc1CC(=O)NNC(=S)NC(=O)c1ccccc1Br,EC50,[5],5.95 µM (active)
same,EC50,[6],> 150 µM (not active)
same,EC50,[7],137 µM (active)
Cc1cc(Br)cc2c1N(C)C(=O)C2(c1ccc(O)cc1)c1ccc(O)cc1,CC50,[1],13.8 µM (active)
CN(C)c1ncc2nc(-c3cc(F)cc(F)c3)c(=O)n(-c3ccccc3)c2n1,AC50,[4],0.316 µM (inconclusive)
Cc1ccc(Cn2c(C(C)Nc3nc(-c4ccc(F)cc4)cs3)nc3cc(Cl)c(Cl)cc32)cc1 (stereo unspecified),CC50,[1],49.3 µM (active)
CCCCC(=O)NC(=S)NNC(=O)CCc1ccccc1,EC50,[5],3.35 µM (active)
same,EC50,[7],8.5 µM (active)
same,EC50,[8],4.32 µM (active)
CC(C)NC(=O)N1CC2(CCN(C(=O)c3ccncc3)CC2)C1,AC50,[9],0.0794 µM (inconclusive)
O=c1c2ccccc2c(-c2ccccc2)nn1Cc1ccc(Cl)cc1,AC50,[4],0.0708 µM (inconclusive)
CC(=O)Nc1ccc(OCC(=O)N2CCC(Cc3ccccc3)CC2)cc1,CC50,[1],21.6 µM (active)
O=C(Nc1ccc(F)cc1F)c1cccnc1Oc1cccc(C(F)(F)F)c1,AC50,[4],0.794 µM (inconclusive)
Clc1ccc(-c2n[nH]c3c2CCC3)c(Cl)c1,EC50,[6],> 150 µM (not active)
C[C@]12C=CC(=O)C=C1CC[C@@H]1[C@H]3C[C@@H](O)[C@](O)(C(=O)CO)[C@@]3(C)C[C@H](O)[C@]12F,AC50,[2],15.8 µM (inconclusive)
CCC/C=C(\CCC)C(NS(=O)(=O)c1ccc(C(F)(F)F)cc1)c1ccc(C(=O)OC)cc1 (stereo unspecified),AC50,[9],1 µM (inconclusive)
CCCc1cc2c(n1Cc1cccc(Cl)c1)C(C)C1CN(C(=O)c3ccccc3)C(C)(C(=O)OC)C21 (stereo unspecified),AC50,[4],31.6 µM (inconclusive)
CCOC(=O)c1nn(-c2ccccc2Cl)c(=O)cc1OCC(=O)Nc1cccc(OC)c1,EC50,[5],31.2 µM (active)
same,EC50,[6],> 150 µM (not active)
same,EC50,[7],> 150 µM (not active)
COC(=O)[C@@]1(Cc2ccc(OC)cc2)[C@H]2c3cc(C(=O)N4CCCC4)n(CCn4cc([N+](=O)[O-])nc4C)c3C[C@H]2CN1C(=O)c1ccccc1,AC50,[2],31.6 µM (inconclusive)
COc1ccccc1NC(=O)Nc1ccc(Cc2ccncc2)cc1,CC50,[1],19.1 µM (active)
COc1ccc2nc(NC(C)=O)sc2c1,AC50,[3],39.8 µM (inconclusive)
same,AC50,[9],28.2 µM (inconclusive)
Cc1cc(NC(=O)c2cc(C(C)C)on2)no1,AC50,[4],20 µM (inconclusive)
CC[C@@H](c1ccccc1)n1c(=O)n2n(c1=O)[C@H]1[C@H](O)[C@H]3O[C@@H]3/C(=N/OCc3ccccc3)[C@@H]1CC2,AC50,[9],5.01 µM (inconclusive)
CCOc1ccc(NS(=O)(=O)c2ccc(C(=O)N3CC(C)OC(C)C3)cc2)cc1 (stereo unspecified),EC50,[8],7.94 µM (active)
CC(=O)c1cccc(NC(=O)c2csc(-n3nc(C)cc3C(F)(F)F)n2)c1,AC50,[3],7.94 µM (inconclusive)
same,AC50,[2],1 µM (inconclusive)
CCOc1cc(CNc2ccc3c(c2)CCC3)ccc1OC,EC50,[5],> 150 µM (not active)
same,EC50,[6],> 150 µM (not active)
same,EC50,[7],> 150 µM (not active)
CCCCNC1=N/C(=C\c2ccco2)C(=O)N1c1ccccc1,AC50,[3],39.8 µM (inconclusive)
same,AC50,[2],4.47 µM (inconclusive)
Cn1cc(-c2nc3cnc(Oc4ccccc4)nc3n(C3CC3)c2=O)c2ccccc21,AC50,[4],5.01 µM (inconclusive)
same,AC50,[9],25.1 µM (inconclusive)
COc1ccc(-c2nc3cnc(Nc4cccc(OC)c4)nc3n(C[C@H]3CCCO3)c2=O)cc1,AC50,[9],5.01 µM (inconclusive)
COC(=O)N1CCC2(CCN(C(=O)NC(C)C)CC2)CC1,AC50,[4],20 µM (inconclusive)
same,AC50,[2],12.6 µM (inconclusive)
COCCN1C(=O)C(O)=C(C(=O)c2cccc(OC)c2)C1c1ccc(C)o1 (stereo unspecified),AC50,[4],12.6 µM (inconclusive)
same,AC50,[2],31.6 µM (inconclusive)
O=S(=O)(c1ccccc1)N1CCC2(CCN(c3ccccc3)CC2)CC1,AC50,[3],10 µM (inconclusive)
same,AC50,[9],2.51 µM (inconclusive)
same,AC50,[2],39.8 µM (inconclusive)
CCC(=O)Nc1c2c(nc3c1CCC3)CCCC2,AC50,[4],15.8 µM (inconclusive)
COC(=O)c1cc(C(=O)Nc2nc3ccccc3[nH]2)cc([N+](=O)[O-])c1,EC50,[5],3.94 µM (active)
same,EC50,[6],> 150 µM (not active)
same,EC50,[7],> 150 µM (not active)
CC(NC(=O)Nc1ccc(Cl)cc1)c1ccc2c(c1)OCO2 (stereo unspecified),CC50,[1],39.5 µM (active)
CC(C)(C)c1nc(SCC(=O)Nc2ccc(N3CCOCC3)cc2)c2ccccc2n1,AC50,[9],1 µM (inconclusive)
CCn1c2ccccc2c2cc(NC(=O)C(C)Oc3ccc(OC)cc3)ccc21 (stereo unspecified),CC50,[1],> 50 µM (active)
same,AC50,[2],7.94 µM (inconclusive)
COc1ccc(C(=O)N2CCC[C@@]3(CCN(c4ccccc4)C3)C2)cc1,AC50,[9],7.94 µM (inconclusive)
O=S(=O)(c1ccccc1)N1CCC2(CCN(c3ccc(-c4ccccc4)cc3)CC2)CC1,AC50,[9],20 µM (inconclusive)
Cc1ccc2[nH]c(/C(C#N)=C\c3cc(C)n(-c4cccc([N+](=O)[O-])c4)c3C)nc2c1,CC50,[1],16.6 µM (active)
O=c1c(CCc2ccccc2)nc2cnc(Oc3ccccc3)nc2n1C1CC1,AC50,[9],15.8 µM (inconclusive)
CC(C)NC(=O)N(C)C[C@H]1OCc2cnnn2CCCC(=O)N([C@H](C)CO)C[C@H]1C,EC50,[8],> 53 µM (inactive)
CCCc1nc2ccccc2c(=O)n1NC(=O)c1c(O)c2cccc3c2n(c1=O)CCC3,EC50,[5],3.78 µM (active)
same,EC50,[6],> 150 µM (not active)
same,EC50,[7],7.68 µM (active)
CC(/C=C/c1ccccc1)=N\NC(=O)C1CC1(C)c1ccccc1 (stereo unspecified),CC50,[1],32 µM (active)
Cc1cccc(CNc2ncnc3ccc(-c4c(C)noc4C)cc23)c1,AC50,[2],1 µM (inconclusive)
CC[C@@H](CO)Nc1nc(NCc2ccccc2)c2ncn(C(C)C)c2n1 [(S)-ROSCOVITINE],AC50,[2],0.316 µM (inconclusive)
CCOC(=O)n1ccn(C)c1=S [CARBIMAZOLE],AC50,[4],12.6 µM (inconclusive)
